According to article PMC8398451, “Molecular Engineering of Curcumin, an Active Constituent of Curcuma longa L. (Turmeric) of the Family Zingiberaceae with Improved Antiproliferative Activity” (Plants, 2021):
Like-named read-outs stand apart in the source and are kept apart here.

Tests used:
K-562 = assay: NCI antiproliferative SRB assay, Leukemia panel; type: cell-based, Human
A549/ATCC = assay: NCI antiproliferative SRB assay, Non-Small Cell Lung Cancer panel; type: cell-based, Human
HOP-62 = assay: as above; type: cell-based, Human
NCI-H23 = assay: as above; type: cell-based, Human
NCI-H460 = assay: as above; type: cell-based, Human
HCC-2998 = assay: NCI antiproliferative SRB assay, Colon Cancer panel; type: cell-based, Human
SW-620 = assay: as above; type: cell-based, Human
U251 = assay: NCI antiproliferative SRB assay, CNS Cancer panel; type: cell-based; conditions: U251
LOX IMVI = assay: NCI antiproliferative SRB assay, Melanoma panel; type: cell-based, Human
MALME-3M = assay: NCI antiproliferative SRB assay, Melanoma panel; type: cell-based, Human
MDA-MB-435 = assay: NCI antiproliferative SRB assay, Melanoma panel; type: cell-based
SK-MEL-28 = assay: NCI antiproliferative SRB assay, Melanoma panel; type: cell-based, Human
SK-MEL-5 = assay: NCI antiproliferative SRB assay, Melanoma panel; type: cell-based, Human
UACC-257 = assay: NCI antiproliferative SRB assay, Melanoma panel; type: cell-based, Human
IGROV1 = assay: NCI antiproliferative SRB assay, Ovarian Cancer panel; type: cell-based, Human
OVCAR-3 = assay: as above; type: cell-based, Human
SK-OV-3 = assay: as above; type: cell-based, Human
786–0 = assay: NCI antiproliferative SRB assay, Renal Cancer panel; type: cell-based, Human
CAKI-1 = assay: as above; type: cell-based, Human
UO-31 = assay: as above; type: cell-based, Human
PC-3 = assay: NCI antiproliferative SRB assay, Prostate Cancer panel; type: cell-based, Human
DU-145 = assay: as above; type: cell-based, Human
MCF7 = assay: NCI antiproliferative SRB assay, Breast Cancer panel; type: cell-based, Human
HS 578T = assay: as above; type: cell-based, Human
Leukemia cell line panel = assay: NCI antiproliferative assay, panel summary; type: cell-based, Human; conditions: for GI50: Homo sapiens
[1] = tested on: Colon Cancer cell line panel; assay: NCI antiproliferative assay, panel summary; type: cell-based, Human
[2] = tested on: CNS Cancer cell line panel; assay: NCI antiproliferative assay, panel summary; type: cell-based, Human
[3] = tested on: Ovarian Cancer cell line panel; assay: NCI antiproliferative assay, panel summary; type: cell-based, Human
[4] = tested on: Renal Cancer cell line panel; assay: NCI antiproliferative assay, panel summary; type: cell-based, Human
60 NCI cancer cell lines = assay: NCI antiproliferative assay, summary over all lines; type: cell-based; conditions: for GI50: Homo sapiens, 5-dose assay
[5] = Homo sapiens, 5-dose 0.01-100 µM
[6] = Homo sapiens, 5-dose 0.01-100 µM, read-out: LC50 (the source's name)
[7] = Homo sapiens, 5-dose assay, read-out: Sub Panel MID b (mean GI50 of panel)
[8] = mean over cell lines, one dose 10 µM

## COc1cc(/C=C/c2cc(/C=C/c3ccc(O)c(OC)c3)n(C(=O)Nc3ccc(C(F)(F)F)cc3)n2)ccc1O [3c]
K-562; 5-dose 0.01-100 µM
  TGI: >100 µM
K-562; Homo sapiens, K562, 5-dose 0.01-100 µM
  GI50: 2.53 µM
K-562; Homo sapiens, K562, 5-dose 0.01-100 µM, read-out: LC50 (the source's name)
  CC50: > 100 µM
K-562; one dose 10 µM
  %GI: 90.55%
  GP (growth percent): 9.45
A549/ATCC; 5-dose 0.01-100 µM
  TGI: >100 µM
A549/ATCC; [5]
  GI50: 4.11 µM
  LC50 (50% lethal concentration): > 100 µM
A549/ATCC; one dose 10 µM
  %GI: 57.05%
  GP (growth percent): 42.95
HOP-62; 5-dose 0.01-100 µM
  TGI: 16.2 µM
HOP-62; [5]
  GI50: 3.6 µM
HOP-62; [6]
  CC50: > 100 µM
HOP-62; one dose 10 µM
  %GI: 37.13%
  GP (growth percent): 62.87
NCI-H23; 5-dose 0.01-100 µM
  TGI: 6.48 µM
NCI-H23; [5]
  GI50: 2.13 µM
NCI-H23; [6]
  CC50: > 100 µM
NCI-H23; one dose 10 µM
  %GI: 48.71%
  GP (growth percent): 51.29
NCI-H460; 5-dose 0.01-100 µM
  TGI: 9.95 µM
NCI-H460; [5]
  GI50: 3.22 µM
NCI-H460; [6]
  CC50: 50.7 µM
NCI-H460; one dose 10 µM
  %GI: 81.71%
  GP (growth percent): 18.29
HCC-2998; 5-dose 0.01-100 µM
  TGI: 3.82 µM
HCC-2998; [5]
  GI50: 2.04 µM
HCC-2998; [6]
  CC50: 71.2 µM
HCC-2998; one dose 10 µM
  %GI: −2.63%
  GP (growth percent): 102.63
SW-620; 5-dose 0.01-100 µM
  TGI: 5.90 µM
SW-620; [5]
  GI50: 2.56 µM
SW-620; [6]
  CC50: 33.6 µM
SW-620; one dose 10 µM
  %GI: 82.00%
  GP (growth percent): 18.00
U251; Homo sapiens, U-251, 5-dose 0.01-100 µM, read-out: GI50
  GI50: 2.49 µM
U251; Homo sapiens, U-251, 5-dose 0.01-100 µM, read-out: LC50 (the source's name)
  CC50: > 100 µM
U251; 5-dose 0.01-100 µM
  TGI: 6.86 µM
U251; one dose 10 µM
  %GI: 90.29%
  GP (growth percent): 9.71
LOX IMVI; 5-dose 0.01-100 µM
  TGI: 3.71 µM
LOX IMVI; [5]
  GI50: 1.77 µM
LOX IMVI; one dose 10 µM
  %GI: 90.89%
  GP (growth percent): 9.11
MALME-3M; 5-dose 0.01-100 µM
  TGI: 8.40 µM
MALME-3M; [5]
  GI50: 2.89 µM
MALME-3M; [6]
  CC50: 32.6 µM
MALME-3M; one dose 10 µM
  %GI: 47.73%
  GP (growth percent): 52.27
MDA-MB-435; 5-dose 0.01-100 µM
  TGI: 7.06 µM
MDA-MB-435; Homo sapiens
  GI50: 2.35 µM
MDA-MB-435; [6]
  CC50: 33.4 µM
MDA-MB-435; one dose 10 µM
  %GI: 72.15%
  GP (growth percent): 27.85
SK-MEL-28; 5-dose 0.01-100 µM
  TGI: 5.90 µM
SK-MEL-28; [5]
  GI50: 2.19 µM
SK-MEL-28; [6]
  CC50: 23.9 µM
SK-MEL-28; one dose 10 µM
  %GI: 42.01%
  GP (growth percent): 57.99
SK-MEL-5; 5-dose 0.01-100 µM
  TGI: 6.89 µM
SK-MEL-5; [5]
  GI50: 2.27 µM
SK-MEL-5; [6]
  CC50: 28 µM
SK-MEL-5; one dose 10 µM
  %GI: 64.60%
  GP (growth percent): 35.40
UACC-257; 5-dose 0.01-100 µM
  TGI: 14.0 µM
UACC-257; [5]
  GI50: 4.01 µM
UACC-257; [6]
  CC50: 42 µM
UACC-257; one dose 10 µM
  %GI: 74.99%
  GP (growth percent): 25.01
IGROV1; 5-dose 0.01-100 µM
  TGI: 11.6 µM
IGROV1; Homo sapiens, IGROV-1, 5-dose 0.01-100 µM
  GI50: 2.77 µM
IGROV1; Homo sapiens, IGROV-1, 5-dose 0.01-100 µM, read-out: LC50 (the source's name)
  CC50: > 100 µM
IGROV1; one dose 10 µM
  %GI: 57.18%
  GP (growth percent): 42.82
OVCAR-3; 5-dose 0.01-100 µM
  TGI: 26.7 µM
OVCAR-3; [5]
  GI50: 3.41 µM
OVCAR-3; [6]
  CC50: > 100 µM
OVCAR-3; one dose 10 µM
  %GI: 86.24%
  GP (growth percent): 13.76
SK-OV-3; 5-dose 0.01-100 µM
  TGI: 66.7 µM
SK-OV-3; [5]
  GI50: 4.02 µM
SK-OV-3; [6]
  CC50: > 100 µM
SK-OV-3; one dose 10 µM
  %GI: 33.91%
  GP (growth percent): 66.09
786–0; 5-dose 0.01-100 µM
  TGI: 7.52 µM
786–0; [5]
  GI50: 2.42 µM
786–0; [6]
  CC50: > 100 µM
786–0; one dose 10 µM
  %GI: 79.93%
  GP (growth percent): 20.07
CAKI-1; 5-dose 0.01-100 µM
  TGI: 12.7 µM
CAKI-1; [5]
  GI50: 3.02 µM
CAKI-1; [6]
  CC50: 44.1 µM
CAKI-1; one dose 10 µM
  %GI: 45.01%
  GP (growth percent): 54.99
UO-31; [5]
  GI50: 1.94 µM
  LC50 (50% lethal concentration): > 100 µM
UO-31; one dose 10 µM
  %GI: 57.15%
  GP (growth percent): 42.85
PC-3; 5-dose 0.01-100 µM
  TGI: 13.5 µM
PC-3; [5]
  GI50: 3.21 µM
PC-3; [6]
  CC50: > 100 µM
PC-3; one dose 10 µM
  %GI: 61.97%
  GP (growth percent): 38.03
DU-145; 5-dose 0.01-100 µM
  TGI: 13.0 µM
DU-145; [5]
  GI50: 3.67 µM
DU-145; [6]
  CC50: 45.3 µM
DU-145; one dose 10 µM
  %GI: 52.45%
  GP (growth percent): 47.55
MCF7; 5-dose 0.01-100 µM
  TGI: 10.7 µM
MCF7; [5]
  GI50: 1.97 µM
MCF7; [6]
  CC50: 72 µM
MCF7; one dose 10 µM
  %GI: 77.08%
  GP (growth percent): 22.92
HS 578T; 5-dose 0.01-100 µM
  TGI: 60.6 µM
HS 578T; [5]
  GI50: 5.1 µM
HS 578T; [6]
  CC50: > 100 µM
HS 578T; one dose 10 µM
  %GI: 48.11%
  GP (growth percent): 51.89
Leukemia cell line panel; 10 µM
  Mean % GI: 91.31%
Leukemia cell line panel; 5-dose assay
  Selectivity Ratio (MID a:MID b): 1.27
Leukemia cell line panel; 5-dose assay, read-out: GI50 values, range over the leukemia panel
  GI50: 1.48 to 2.73 µM
Leukemia cell line panel; 5-dose assay, read-out: Sub Panel MID b (mean GI50 of panel)
  GI50: 2.24 µM
[1]; 10 µM
  Mean % GI: 73.05%
[1]; 5-dose assay
  Selectivity Ratio (MID a:MID b): 1.31
[1]; [7]
  GI50: 2.17 µM
[2]; 10 µM
  Mean % GI: 53.38%
[2]; 5-dose assay
  Selectivity Ratio (MID a:MID b): 1.02
[2]; [7]
  GI50: 2.78 µM
[3]; 10 µM
  Mean % GI: 47.62%
[3]; 5-dose assay
  Selectivity Ratio (MID a:MID b): 0.88
[3]; [7]
  GI50: 3.24 µM
[4]; Homo sapiens, read-out: Sub Panel MID b (mean GI50 of panel)
  GI50: 3.06 µM
[4]; Renal Cancer panel, 10 µM
  Mean % GI: 46.37%
[4]; Renal Cancer panel, 5-dose assay
  Selectivity Ratio (MID a:MID b): 0.93
60 NCI cancer cell lines; read-out: GI50 values, range over cell lines
  GI50: 1.48 to 7.29 µM
60 NCI cancer cell lines; read-out: MID a (mean GI50 of 60 NCI cancer cell lines)
  GI50: 2.84 µM
60 NCI cancer cell lines; [8]
  Mean % GI: 59.26%
  Mean GP: 40.74
